Patent US7947734B2, “Substituted para-trifluoromethyl phenylate compounds and its preparation and use thereof” (Sinochem Corporation, priority 2005, dated 2011)

Tests used:
[1] = system: wheat powdery mildew (Blumeria graminis); experiment: Fungicidal protective activity against wheat powdery mildew on potted plants; type: in vivo
[2] = system: Carmine spider mite (Tetranychus cinnabarinus); experiment: Acaricidal activity, Airbrush spraying tower, mortality
Procedure: (§1) Technical samples were dissolved in acetone/methanol (1:1) and diluted to required concentration with water containing 0.1% of tween 80.
(§2) Armyworm (Leucania separata), diamondback moth (Plutella xylostella) culex mosquitoes (Culex pippens pallens), Myzus persicae (Myzus persicae and Carmine spider mite (Tetranychus cinnabarinus) were treated with Airbrush spraying tower, and culex mosquito was treated with dipping culture method. The pressure of Airbrush spraying tower was 10 psi (about 0.7 kg/cm2) and the amount of spraying was 0.5 ml. Mortality investigation of test insects was carried out 2 to 3 days after the treatment.

Myzus persicae = experiment: Insecticidal activity, Airbrush spraying tower, mortality; details: 600 mg/L
Procedure: as §1, §2

[3] = system: cucumber downy mildew (Pseudoperonospora cubenis); experiment: Fungicidal protective activity against cucumber downy mildew on potted plants; type: in vivo; details: 400 mg/L
[4] = system: wheat powdery mildew (Blumeria graminis); experiment: Therapy activity against wheat powdery mildew on potted plants; type: in vivo
[5] = 0.19 mg/L, wheat powdery mildew
[6] = 0.39 mg/L, wheat powdery mildew
[7] = 0.78 mg/L, wheat powdery mildew
[8] = 1.56 mg/L, wheat powdery mildew
[9] = 3.13 mg/L, wheat powdery mildew
[10] = 6.25 mg/L, wheat powdery mildew
[11] = 12.5 mg/L, wheat powdery mildew

Row | SMILES | control against wheat powdery mildew ([1]; 200 mg/L) | control against wheat powdery mildew ([1]; 400 mg/L) | Protective activity % one day [1, 5] | Protective activity % one day [1, 6] | Protective activity % one day [1, 7] | Protective activity % one day [1, 8] | Protective activity % one day [1, 9] | Protective activity % one day [1, 10] | control against wheat powdery mildew ([1]; 12.5 mg/L) | Protective activity % one day [1, 11] | Protective activity % one day ([1]; 25 mg/L, wheat powdery mildew) | control against cucumber downy mildew [3] | other results
1 | COC(=O)N(OC)c1ccccc1COc1ccc(C(F)(F)F)cc1Cl [compound 10] | more than 95% | 100% | – | – | – | – | – | – | – | – | – | – | –
2 | COC=C(C(=O)OC)c1ccccc1COc1ccc(C(F)(F)F)cc1Cl [compound 1] | 100% | 100% | 30% | 55% | 90% | 100% | 100% | 100% | 100% | 100% | 100% | 100% | control of Carmine spider mite ([2]; 10 mg/L): 95%; control of Carmine spider mite ([2]; 50 mg/L): 100%; control of Carmine spider mite ([2]; 150 mg/L): 100%; control of Carmine spider mite ([2]; 600 mg/L): 100%; control of Myzus persicae (Myzus persicae): 100%; Therapy activity % 3 days ([4]; 1.56 mg/L): 50%; Therapy activity % 3 days ([4]; 3.125 mg/L): 80%; Therapy activity % 3 days ([4]; 6.25 mg/L): 100%; Therapy activity % 3 days ([4]; 12.5 mg/L): 100%
3 | CO/N=C(/C(=O)OC)c1ccccc1COc1ccccc1C [kresoxin-methyl, reference compound] | – | – | – | – | – | – | – | – | – | – | – | – | inhibition at 0.19 µg/mL ([1]; Blumeria graminis, 24 h, 0.19 mg/L, wheat powdery mildew, read-out: Protective activity % one day): 0%; inhibition at 0.39 µg/mL ([1]; Blumeria graminis, 24 h, 0.39 mg/L, wheat powdery mildew, read-out: Protective activity % one day): 0%; inhibition at 0.78 µg/mL ([1]; Blumeria graminis, 24 h, 0.78 mg/L, wheat powdery mildew, read-out: Protective activity % one day): 15%; inhibition at 1.56 µg/mL ([1]; Blumeria graminis, 24 h, 1.56 mg/L, wheat powdery mildew, read-out: Protective activity % one day): 40%; inhibition at 3.13 µg/mL ([1]; Blumeria graminis, 24 h, 3.13 mg/L, wheat powdery mildew, read-out: Protective activity % one day): 70%; inhibition at 6.25 µg/mL ([1]; Blumeria graminis, 24 h, 6.25 mg/L, wheat powdery mildew, read-out: Protective activity % one day): 98%; inhibition at 12.5 µg/mL ([1]; Blumeria graminis, 24 h, 12.5 mg/L, wheat powdery mildew, read-out: Protective activity % one day): 100%; inhibition at 25 µg/mL ([1]; Blumeria graminis, 24 h, 25 mg/L, wheat powdery mildew, read-out: Protective activity % one day): 100%; inhibition at 1.56 µg/mL ([4]; Blumeria graminis, 72 h, 1.56 mg/L, read-out: Therapy activity % 3 days): 10%; inhibition at 3.125 µg/mL ([4]; Blumeria graminis, 72 h, 3.125 mg/L, read-out: Therapy activity % 3 days): 15%; inhibition at 6.25 µg/mL ([4]; Blumeria graminis, 72 h, 6.25 mg/L, read-out: Therapy activity % 3 days): 20%; inhibition at 12.5 µg/mL ([4]; Blumeria graminis, 72 h, 12.5 mg/L, read-out: Therapy activity % 3 days): 100%
4 | CON=C(C(=O)OC)c1ccccc1COc1ccc(C(F)(F)F)cc1Cl [compound 4] | 100% | 100% | 70% | 90% | 98% | 100% | 100% | 100% | 100% | 100% | 100% | 100% | control of Carmine spider mite ([2]; 600 mg/L): 100%
5 | COC=C(C(=O)OC)c1ccccc1Oc1cc(Oc2ccc(C(F)(F)F)cc2Cl)ncn1 [compound 16] | – | 100% | – | – | – | – | – | – | – | – | – | – | –
6 | CNC(=O)C(=NOC)c1ccccc1COc1ccc(C(F)(F)F)cc1Cl [compound 7] | 100% | 100% | 50% | 85% | 90% | 100% | 100% | 100% | 100% | 100% | 100% | 100% | –
7 | CC(C)(C)c1ccc(CSc2cnn(C(C)(C)C)c(=O)c2Cl)cc1 [Pyridaben, reference compound] | – | – | – | – | – | – | – | – | – | – | – | – | control of Carmine spider mite ([2]; 10 mg/L): 95%
